Consider six compounds from patent US7763439B2, “Two-photon absorbing dipyrrometheneboron difluoride dyes and their applications” (Arctic Diagnostics Oy, priority 2001, dated 2010).

Series [1] is described as follows: Two-photon fluorescence yields of dyes in solution, laser with high two-photon excitation efficiency. To be noted: 100 nM dye in ethanol (R-PE in PBS pH 7.4); 1064 nm Nd:YAG microchip laser; normalised to Rhodamine B (100). The format is physicochemical. An excerpt: (§1) FIG. 1 is a plot of two-photon excitations vs. illumination intensity. At low illumination intensities (A) excitation follows a quadratic dependence of the illumination intensity. In order to maximise the two-photon excited fluorescence a dye should be excited close to saturation level (B). At saturation level (C) almost all of the dye molecules become excited. FIG. 2a present alkyl substituted dipyrrometheneboron difluoride dyes described in examples 1-3 as compounds 1-3. FIGS. 2b and 2c present heteroaryl substituted dipyrrometheneboron difluoride dyes described in examples 4-9 as compounds 4-9. X^+ is a cationic counterion. FIG. 2d presents phenyl substituted dipyrrometheneboron difluoride dyes described in examples 10 and 11 as compounds 10 and 11. X^+ is a cationic counterion. FIGS. 2e and 2f present phenylethenyl substituted dipyrromethene-boron difluoride dyes described in examples 12 and 13 as compounds 12 and 13. X^+ is a cationic counterion. FIGS. 2g and 2h present thienyl substituted dipyrrometheneboron difluoride dyes with amino-, arylamino-, maleimide- and isothiocyanate reactive groups described in examples 14-17 as compounds 14-17. X^+ is a cationic counterion. FIG. 3 presents a linker compound 18 that is used to increase solubility of the dyes in aqueous solutions. X^+ is a cationic counter-ion. FIG. 4 is a plot of two-photon fluorescence signal vs. analyte (AFP) concentration in an immunoassay based on two-photon fluorescence as described in example 21. The AFP concentration 0 ng/ml is presented as a concentration of 0.1 ng/ml because of the logarithmic scale used in FIG. 4. FIG. 5 is an optical scheme of the instrument used in two-photon fluorescence measurements. A passively Q-switched Nd:YAG microchip laser 1 is used as an illumination source for two-photon excited fluorescence. The wavelength of the laser is 1064 nm, the pulse duration is 1 ns and the repetition rate is 20 kHz. The naturally diverging laser light beam is directed with a dichroich mirror 2 through an optical scanner unit 3 to the entrance aperture of the objective lens 4. The illumination at the entrance aperture is gaussian filling about 70% of the full aperture. The objective lens then focuses the illumination light into a special cuvette 5 that has a thin optical bottom (thickness 0.2 mm). The average optical output power reaching the sample is 50 mW. The size of the focal volume is about 1 femtoliter. The two-photon excited fluorescence signal in the range 540-700 nm is collected from the full aperture of the objective lens 4 and directed through the dichroich mirror 2 and the band pass filter 6 to the photomultiplier tube 7. In case of particle measurements, both the two-photon excited fluorescence light and the microparticle back-scattered (reflected) laser light are measured. The dichroich mirror 2 and the 2% beam splitting window 8 deflect the back-scattered light to the pinhole 9 making the detection of the scattering signal confocal. The detector for the scattering signal is a near infrared GaAs pin photodiode 10. The particles are continuously tracked by using a three-dimensional beam scanner 3. The xy-scanner is optomechanical and is positioned as close to the entrance aperture of the objective lens as possible. […] Optical pressure caused by the illuminating laser beam traps the particle and guides it through the centre of laser beam focus. The fluorescence signal is measured while the particle is in focus i.e. the back scattering signal exceeds the preset threshold. In addition to xy-scanning a further z-scanning movement is performed by moving the objective slowly in the axial direction. The amplitude of this movement is 150 μm and the movement is not stopped for particle measurement. Despite of slow z-scanning the particle remains in the focus on basis of optical trapping forces.
The two-photon fluorescence yields were measured using experimental apparatus shown schematically in FIG. 5. […]

Series [2] can be described thus: Single pulse effect: z-response, 20% to 80% fluorescence intensity distance in dye solution. The class given is physicochemical. To be noted: dye solution between two microscope slides; two-photon excitation.
Excerpt: as §1
The direct measurement of quenching by single pulse effect is difficult. […]

Consider “4,4-difluoro-1,3,5,7-tetramethyl-6-carboxyethyl-4-bora-3a,4a-diaza-s-indacene-2-propionic acid succinimidylester [Compound 3]”, for which the “Normalised two-photon fluorescence yield” value in series [1] is given as 18 a.u. Moreover, the “20% to 80% fluorescence intensity distance values” in series [2] was 11.5 a.u.

Regarding `CCN(CC)c1ccc2c(-c3ccccc3C(=O)O)c3ccc(=[N+](CC)CC)cc-3oc2c1.[Cl-]` [Rhodamine B], the “Normalised two-photon fluorescence yield” value in series [1] is on record as 100 a.u. Moreover, in series [2], the “20% to 80% fluorescence intensity distance values” was found to be 16.5 a.u.

Turning to `O=C(O)CCC1=[N+]2C(=Cc3c(-c4ccccc4)cc(-c4ccccc4)n3[B-]2(F)F)C=C1` [BODIPY 530/550], the “Normalised two-photon fluorescence yield” value in series [1] stood at 66 a.u. Also, the “20% to 80% fluorescence intensity distance values” in series [2] is 12.2 a.u.

Regarding `O=C(O)CCC1=[N+]2C(=Cc3ccc(-c4cccs4)n3[B-]2(F)F)C=C1` [BODIPY 558/568], the “Normalised two-photon fluorescence yield” value in series [1] is recorded as 101 a.u. Besides, in series [2], the “20% to 80% fluorescence intensity distance values” is listed as 13.7 a.u.

With “Glu-Tau-succinimide derivative of 4,4-difluoro-5-(2-thienyl)-1,3-dimethyl-4-bora-3a,4a-diaza-s-indacene-2-propionic acid [Compound 8]”, the “Normalised two-photon fluorescence yield” value in series [1] came out at 219 a.u. The “20% to 80% fluorescence intensity distance values” in series [2] was determined as 12.6 a.u.

Regarding R-phycoerythrin [R-PE], in series [1], the “Normalised two-photon fluorescence yield” value is reported as 618 a.u. For the same compound, in series [2], the “20% to 80% fluorescence intensity distance values” came to 21.5 a.u.
